According to US20050043280A1, “Use of active ingredients having a mu-opioid receptor agonist action and an opiod receptor antognist action, as combination drugs for the treatment of cancer” (priority 2001, published 2005):

What was measured:
[1] = tested on: human MCF-7 breast cancer cells; test: Cell proliferation test (FIG. 3A); type: cell-based; conditions: for proliferation of MCF-7 cells compared to the untreated control: 100 or 500 μmol DAMGO, 100 μmol naloxone, 500 μmol DAMGO+100 μmol naloxone
Excerpt: FIG. 3A Proliferation of MCF-7 cells in vitro after treatment with 100 μmol DAMGO (solid triangles), 500 μmol DAMGO (solid squares)(left), 100 μmol naloxone (open circles) or the mixture containing 500 μmol DAMGO+100 μmol naloxone (open triangles)(right) versus untreated control cells (solid circles). Means±SEM from 4-6 repeat experiments.

[2] = tested on: MCF-7 cells; test: DNA cleavage rate with apoptosis assay kit (FIG. 4); type: cell-based, human; conditions: 500 μmol; incubation for 24 hours
Method: In order to characterize apoptosis (cell death) in more detail, a commercial apoptosis assay kit that is in common use in science was used to measure the rate of DNA cleavage (FIG. 4).
FIG. 4 DNA cleavage rate after incubation of MCF-7 cells for 24 hours with the active ingredients at the dosages indicated on the abscissa. Means±SEM from 6 independent experiments. DNA cleavage was measured by assaying the mono- and oligonucleosomes with an apoptosis detection kit containing antihistones and anti-DNA antibodies.

[3] = tested on: MCF-7 cells; test: Cytotoxic effects, survival rate of the cells (FIG. 3B); conditions: standardized to untreated control cells = 100%; combinations with 100 μmol DAMGO
Excerpt: The same cell line was used to determine the cytotoxic effects of these active ingredients by determining the rate of survival of the cells (FIG. 3B). […] TNFα was used as a positive control.
The survival rate was standardized to the number of untreated control cells representing 100%. Means±SEM from 4 repeat experiments.

[4] = tested on: MCF-7 cells; conditions: 24 hours after treatment; 0.5, 1.0, 2.0 mmol; combination 0.5 mmol morphine+0.1 mmol naloxone and 1 mmol+1 mmol
[5] = tested on: MCF-7 cells; test: Flow cytometry of annexin V and 7-AAD binding, apoptosis rate (FIG. 6); type: cell-based, human
[6] = Development of the body weight during treatment (FIG. 1B); conditions: 3 weeks of treatment as in FIG. 1A
Method: In an established pharmacological animal model, naked mice (NMRI-nu/nu; Harlan, Borchen) received a subcutaneous injection containing a cell suspension (5×10^6 cells in 300 μl per mouse) of human breast carcinoma cells (MCF-7 cell line).
A total of 5×10^6 cells were injected subcutaneously per mouse. […] The animals were treated with 10 mg/kg β-estradiol valerate (i.m.) one day before and 7 and 14 days after the injection of tumor cells. […] Tumor volume=(long diameter×short diameter^2)/2.
FIG. 1B Development of the body weight during treatment. Treatment as in 1A.

[7] = tested on: MCF-7 cells; conditions: cited from earlier work
[8] = 1 mmol, 24 hours after treatment (not shown)
[9] = 2 mmol, 24 hours after treatment
[10] = 3 mmol, 24 hours after treatment

Row | Compound | proliferation of MCF-7 cells compared to the untreated control [1] | time at which the maximal number of cells was attained ([1]; DAMGO-treated cultures) | cell death in treated cultures ([1]; between 48 and 72 hours) | rate of DNA cleavage compared to the untreated control [2] | survival rate of MCF-7 cells (cytotoxic effect) [3] | number of cells in G1 phase (block of cell cycle from G1 to S phase) [4] | number of cells in late apoptosis [5, 8] | number of cells in late apoptosis [5, 9] | number of cells in late apoptosis [5, 10] | body weight [6] | apoptosis in MCF-7 cells (positive control, known effect) [7]
1 | C[C@@H](NC(=O)[C@@H](N)Cc1ccc(O)cc1)C(=O)NCC(=O)N(C)[C@@H](Cc1ccccc1)C(=O)NCCO [DAMGO, (D-Ala2, N-Methyl-Phe4, Gly-ol5)enkephalin] | reduced the cell division cycle substantially in a concentration-dependent fashion | 48 h | a fraction of the cells on DAMGO treatment died | increase significantly | concentration-dependent positive effect on the survival rate |  |  |  |  |  | 
2 | CN1CC[C@]23c4c5ccc(O)c4O[C@H]2[C@@H](O)C=C[C@H]3[C@H]1C5 [morphine] |  |  |  |  |  | concentration-dependent increase in the number of cells in G1 phase | no longer detectable | less pronounced | clear increase in the number of cells in late apoptosis | weight loss | 
3 | C=CCN1CC[C@]23c4c5ccc(O)c4O[C@H]2C(=O)CC[C@@]3(O)[C@H]1C5 [naloxone] | growth-inhibitory effect |  |  | increase significantly | concentration-dependent positive effect on the survival rate | block the cell cycle in a similar fashion | no longer detectable | less pronounced | clear increase in the number of cells in late apoptosis | increased slightly | 
4 | TNFα |  |  |  |  |  |  |  |  |  |  | induce apoptosis
